Species: Rattus norvegicus
Assay: Half-maximal effective dose for inducing [Ca2+] release from rat brain microsomes
Format: functional

`N=c1c2ncn3c2ncn1[C@@H]1O[C@H](COP(=O)(O)OP(=O)(O)OP(=O)(O)OC[C@H]2O[C@@H]3[C@H](O)[C@@H]2O)[C@@H](O)[C@H]1O` gave an ED50 of 0.8 µM.

From ChEMBL document CHEMBL1128919, “Synthesis and characterization of cyclic ATP-ribose: a potent mediator of calcium release” (Bioorg Med Chem Lett, 1996)
